Results taken from patent US12304899B2, “Factor XI activation inhibitors” (Merck Sharp & Dohme LLC, priority 2019, dated 2025).

Biological target: T1, Human coagulation factor (F)XI (Homo sapiens, UniProt P03951)
T1 construct: purchased Haematologic Technologies Inc. (FXI); Enzyme Research Laboratories (FXIIa) HCXI-150 (FXI); HFXIIa (FXIIa)
Assay: Inhibition of FXIIa mediated activation of FXI (activation of human Factor XI to XIa by human Factor α-XIIa)
Assay type: biochemical
Details: human FXI pre-incubated with compound 30 min at 22° C., activation by human FXIIa 60 min, z-GPR-AFC substrate fluorescence, 4 parameter logistic fit; read-out: Inhibition of FXIIa meditated activation of FXI
Method: Inhibition of FXIIa Mediated Activation of FXI
Activation of Human Factor XI to XIa by Human Factor α-XIIa
The assay was performed in 50 mM HEPES, 150 mM NaCl, 5 mM CaCl2, 0.1% PEG-8000, pH 7.4 buffer in black, flat-bottom, polystyrene microplates (Corning, Cat #3573). Serial dilutions (10-point, 3.333-fold) of the test compounds delivered as 10 mM DMSO stocks were prepared in the Labcyte Echo-qualified PP 384 well microplates (Labcyte, Cat #P-05525). Human coagulation factor (F)XI (Haematologic Technologies Inc., Cat #HCXI-150, concentration 46 nM, 19.5 uL) was pre-incubated with 0.5 uL of the test compounds for 30 min at 22° C. The activation was initiated by addition of 10 uL of human coagulation factor (F)XIIa (Enzyme Research Laboratories, Cat #HFXIIa, concentration 30 nM) and the reaction proceeded for 60 min at 22° C., after which it was quenched by addition of a selective inhibitor of FXIIa (Compound 54 in International Patent Publication WO2018093695) concentration 600 uM in DMSO, 1 uL). 10 min after the quench, 29 uL of z-GPR-AFC substrate (Sigma, Cat #C0980-10 MG, concentration 200 uM) was added into each well and the detection reaction proceeded for 60 min at 22° C. Fluorescence at 405/510 nm was measured in end-point mode using an Envision plate-reader (Perkin Elmer). IDBS Activity Base XE (ABase) analysis using 4 parameter logistic fit was performed to determine Minimum, Maximum, EC50, and Slope Factor for each compound.

T1 sequence (P03951 19-625): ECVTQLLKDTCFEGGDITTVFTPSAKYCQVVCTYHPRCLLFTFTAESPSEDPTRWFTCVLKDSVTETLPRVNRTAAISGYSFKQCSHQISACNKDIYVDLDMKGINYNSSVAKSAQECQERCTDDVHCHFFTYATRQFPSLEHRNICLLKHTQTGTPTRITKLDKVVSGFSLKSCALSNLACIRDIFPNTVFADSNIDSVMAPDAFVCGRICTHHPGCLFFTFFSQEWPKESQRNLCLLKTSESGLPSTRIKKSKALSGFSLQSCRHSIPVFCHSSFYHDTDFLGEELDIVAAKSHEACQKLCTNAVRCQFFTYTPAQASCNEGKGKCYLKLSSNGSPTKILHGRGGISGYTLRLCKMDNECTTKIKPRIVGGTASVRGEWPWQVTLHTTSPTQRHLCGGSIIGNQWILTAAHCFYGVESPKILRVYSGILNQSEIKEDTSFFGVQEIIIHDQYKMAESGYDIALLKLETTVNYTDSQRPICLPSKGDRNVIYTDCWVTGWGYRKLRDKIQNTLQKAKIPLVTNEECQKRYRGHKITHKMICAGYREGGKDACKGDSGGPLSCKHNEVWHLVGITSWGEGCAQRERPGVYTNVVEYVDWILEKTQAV

SMILES | EC50 [nM]
O=C(c1cc(C(=O)N2CCC(F)CC2)c2cc(OCc3nc4ccccc4s3)ccc2n1)N1CCC(n2cccn2)CC1 [Example 52, (4-(1H-pyrazol-1-yl)piperidin-1-yl)(6-(benzo[d]thiazol-2-ylmethoxy)-4-(4-fluoropiperidine-1-carbonyl)quinolin-2-yl)methanone] | 28.3
O=C(c1cc(C(=O)N2CCCC(F)(F)C2)c2cc(OCc3nc4ccccc4s3)ccc2n1)N1CCC(n2cccn2)CC1 [Example 53, (4-(1H-pyrazol-1-yl)piperidin-1-yl)(6-(benzo[d]thiazol-2-ylmethoxy)-4-(3,3-difluoro-piperidine-1-carbonyl)quin-olin-2-yl)methanone] | 62.6
CN(C(=O)c1cc(C(=O)N2CCC(n3cccn3)CC2)nc2ccc(OCc3nc4ccccc4s3)cc12)C1CC1 [Example 54, 2-(4-(1H-pyrazol-1-yl)piperi-dine-1-carbonyl)-6-(benzo[d]-thiazol-2-ylmethoxy)-N-cyclo-propyl-N-methylquinoline-4-carboxamide] | 71.5
CN(C(=O)c1cc(C(=O)N2CCC(n3cccn3)CC2)nc2ccc(OCc3nc4ccccc4s3)cc12)C1CCC1 [Example 55, 2-(4-(1H-pyrazol-1-yl)piperi-dine-1-carbonyl)-6-(benzo[d]-thiazol-2-ylmethoxy)-N-cyclo-butyl-N-methylquinoline-4-carboxamide] | 366
O=C(c1cc(C(=O)N2CCCCC2)c2cc(OCc3nc4ccccc4s3)ccc2n1)N1CCC(c2cc[nH]n2)CC1 [Example 63, (4-(1H-pyrazol-3-yl)piperi-din-1-yl)(6-(benzo[d]-thiazol-2-ylmethoxy)-4-(piperidine-1-carbonyl)-quinolin-2-yl)methanone] | 31
O=C(c1cc(C(=O)N2CCCCC2)c2cc(OCc3nc4ccccc4s3)ccc2n1)N1CCC(n2ccnn2)CC1 [Example 64, (4-(1H-1,2,3-triazol-1-yl)-piperidin-1-yl)(6-(benzo-[d]thiazol-2-ylmethoxy)-4-(piperidine-1-carbonyl)-quinolin-2-yl)methanone] | 42.1
O=C(c1cc(C(=O)N2CCCCC2)c2cc(OCc3nc4ccccc4s3)ccc2n1)N1CCN(CC(F)(F)F)CC1 [Example 65, (6-(benzo[d]thiazol-2-yl-methoxy)-2-(4-(2,2,2-trifluoroethyl)piperazine-1-carbonyl)quinolin-4-yl)-(piperidin-1-yl)methanone] | 19.1
CC(N1CCN(C(=O)c2cc(C(=O)N3CCCCC3)c3cc(OCc4nc5ccccc5s4)ccc3n2)CC1)C(F)(F)F (centres unmarked) [Example 66, (6-(benzo[d]thiazol-2-yl-methoxy)-2-(4-(1,1,1-trifluoropropan-2-yl)-piperazine-1-carbonyl)-quinolin-4-yl)(piperidin-1-yl)methanone] | 16.5
O=C(c1cc(C(=O)N2CCCCC2)c2cc(OCc3nc4ccccc4s3)ccc2n1)N1CCN(CC(F)F)CC1 [Example 67, (6-(benzo[d]thiazol-2-yl-methoxy)-2-(4-(2,2-difluoroethyl)piperazine-1-carbonyl)quinolin-4-yl)-(piperidin-1-yl)methanone] | 34.7
CS(=O)(=O)N1CCN(C(=O)c2cc(C(=O)N3CCCCC3)c3cc(OCc4nc5ccccc5s4)ccc3n2)CC1 [Example 68, (6-(benzo[d]thiazol-2-yl-methoxy)-2-(4-(methyl-sulfonyl)piperazine-1-carbonyl)quinolin-4-yl)-(piperidin-1-yl)methanone] | 19.1
O=C(c1cc(C(=O)N2CCCCC2)c2cc(OCc3nc4ccccc4s3)ccc2n1)N1CCC(n2cc(F)cn2)CC1 [Example 69, (6-(benzo[d]thiazol-2-yl-methoxy)-2-(4-(4-fluoro-1H-pyrazol-1-yl)piperi-dine-1-carbonyl)quinolin-4-yl)(piperidin-1-yl) methanone] | 45.9
O=C(c1cc(C(=O)N2CCCCC2)c2cc(OCc3nc4ccccc4s3)ccc2n1)N1CC[C@H]2OCCC[C@@H]2C1 [Example 70] | 40.2
O=C(c1cc(C(=O)N2CCCCC2)c2cc(OCc3nc4ccccc4s3)ccc2n1)N1CCCN(Cc2nccs2)CC1 [Example 71, 4-(6-(benzo[d]thiazol-2-yl-methoxy)-4-(piperidine-1-carbonyl)quinoline-2-car-bonyl)-1-(thiazol-2-yl-methyl)-1,4-diazepan-1-ium 2,2,2-trifluoroacetate] | 48.6
CC(=O)NC1CC2(CCN(C(=O)c3cc(C(=O)N4CCCCC4)c4cc(OCc5nc6ccccc6s5)ccc4n3)CC2)C1 [Example 73, N-(7-(6-(benzo[d]thiazol-2-ylmethoxy)-4-(piperi-dine-1-carbonyl)quinoline-2-carbonyl)-7-azaspiro-[3.5]nonan-2-yl)acetamide] | 38.5

Second part, the compound after the results:

EC50 [nM] | SMILES
33.7 | N#CC1(c2ccccc2)CCN(C(=O)c2cc(C(=O)N3CCCCC3)c3cc(OCCCn4cccc4)ccc3n2)CC1 [Example 46, 1-(6-(3-(1H-pyrrol-1-yl)-propoxy)-4-(piperidine-1-car-bonyl)quinoline-2-carbonyl)-4-phenylpiperidine-4-carbonitrile]
13.8 | N#CC1(c2ccccc2)CCN(C(=O)c2cc(C(=O)N3CCCCC3)c3cc(OCc4cn5ccccc5n4)ccc3n2)CC1 [Example 47, 1-(6-(imidazo[1,2-a]pyridin-2-ylmethoxy)-4-(piperidine-1-carbonyl)quinoline-2-carbonyl)-4-phenylpiperi-dine-4-carbonitrile]
44.9 | N#CC1(c2ccccc2)CCN(C(=O)c2cc(C(=O)N3CCCCC3)c3cc(OCc4ccccn4)ccc3n2)CC1 [Example 48, 4-phenyl-1-(4-(piperidine-1-carbonyl)-6-(pyridin-2-yl-methoxy)quinoline-2-carbon-yl)piperidine-4-carbonitrile]
15 | N#CC1(c2ccccc2)CCN(C(=O)c2cc(C(=O)N3CCCCC3)c3cc(OCc4nc5ccccc5s4)ccc3n2)CC1 [Example 49, 1-(6-(benzo[d]thiazol-2-yl-methoxy)-4-(piperidine-1-carbonyl)quinoline-2-carbonyl)-4-phenylpiperi-dine-4-carbonitrile]
33.1 | Cn1c(COc2ccc3nc(C(=O)N4CCC(C#N)(c5ccccc5)CC4)cc(C(=O)N4CCCCC4)c3c2)nc2ccccc21 [Example 50, 1-(6-((1-methyl-1H-benzo[d]-imidazol-2-yl)methoxy)-4-(piperidine-1-carbonyl)quin-oline-2-carbonyl)-4-phenyl-piperidine-4-carbonitrile]
40.5 | N#CC1(c2ccccc2)CCN(C(=O)c2cc(C(=O)N3CCCCC3)c3cc(OCc4noc5ccccc45)ccc3n2)CC1 [Example 51, 1-(6-(benzo[d]isoxazol-3-yl-methoxy)-4-(piperidine-1-carbonyl)quinoline-2-carbon-yl)-4-phenylpiperidine-4-carbonitrile]
21.8 | N#CC1(c2ccccn2)CCN(C(=O)c2cc(C(=O)N3CCCCC3)c3cc(OCc4nc5ccccc5s4)ccc3n2)CC1 [Example 57, 1-(6-(benzo[d]thiazol-2-yl-methoxy)-4-(piperidine-1-carbonyl)quinoline-2-car-bonyl)-4-(pyridin-2-yl)-piperidine-4-carbonitrile]
33.7 | N#CC1(n2cccn2)CCN(C(=O)c2cc(C(=O)N3CCCCC3)c3cc(OCc4nc5ccccc5s4)ccc3n2)CC1 [Example 58, 1-(6-(benzo[d]thiazol-2-ylmethoxy)-4-(piperidine-1-carbonyl)quinoline-2-carbonyl)-4-(1H-pyrazol-1-yl)piperidine-4-carbonitrile]
60 | NC(=O)C1(c2ccccc2)CCN(C(=O)c2cc(C(=O)N3CCCCC3)c3cc(OCc4nc5ccccc5s4)ccc3n2)CC1 [Example 59, 1-(6-(benzo[d]thiazol-2-yl-methoxy)-4-(piperidine-1-carbonyl)quinoline-2-car-bonyl)-4-phenylpiperidine-4-carboxamide]
37.7 | N#CC1(c2ccccc2)CCN(C(=O)c2cc(C(=O)N3CCCCC3)c3cc(OCc4nc5ccccc5s4)ccc3n2)CC1 [Example 60, 1-(6-(benzo[d]thiazol-2-yl-methoxy)-4-(piperidine-1-carbonyl)quinoline-2-car-onyl)-4-phenylpiperidine-4-carbonitrile]
131 | C[C@]1(O)CCN(C(=O)c2cc(C(=O)N3CCCCC3)c3cc(OCc4nc5ccccc5s4)ccc3n2)C1 [Example 61, (S)(6-(benzo[d]thiazol-2-ylmethoxy)-2-(3-hydroxy-3-methylpyrrolidine-1-carbonyl)quinolin-4-yl)-(piperidin-1-yl)methanone]
19.1 | O=C(c1cc(C(=O)N2CCCCC2)c2cc(OCc3nc4ccccc4s3)ccc2n1)N1CCC2(CC1)CC2(F)F [Example 62, (6-(benzo[d]thiazol-2-yl-methoxy)-2-(1,1-difluoro-6-azaspiro[2.5]octane-6-carbonyl)quinolin-4-yl)-(piperidin-1-yl)methanone]
